From ChEMBL document CHEMBL4507329, “Data for DCP probe BTZO-1” (2021)

Key:
[1] = biological target: Tyrosine-protein kinase ITK/TSK (Homo sapiens) (UniProt Q08881); conditions: Compound concentration 1000.0 nM
[2] = biological target: Calcium/calmodulin-dependent protein kinase type 1 (Homo sapiens) (UniProt Q14012); conditions: Compound concentration 1000.0 nM
[3] = biological target: Ribosomal protein S6 kinase alpha-6 (Homo sapiens) (UniProt Q9UK32); conditions: Compound concentration 1000.0 nM
[4] = biological target: Inhibitor of nuclear factor kappa-B kinase subunit alpha (Homo sapiens) (UniProt O15111); conditions: Compound concentration 1000.0 nM
[5] = biological target: Epithelial discoidin domain-containing receptor 1 (Homo sapiens) (UniProt Q08345); conditions: Compound concentration 1000.0 nM
[6] = biological target: Serine/threonine-protein kinase TAO2 (Homo sapiens) (UniProt Q9UL54); conditions: Compound concentration 1000.0 nM
[7] = system: Tyrosine-protein kinase ABL1 (Homo sapiens), P00519 [E255K]; conditions: Compound concentration 1000.0 nM
[8] = biological target: Ribosomal protein S6 kinase alpha-4 (Homo sapiens) (UniProt O75676); conditions: Compound concentration 1000.0 nM
[9] = system: Tyrosine-protein kinase ABL1 (Homo sapiens), P00519 [F317L]; conditions: Compound concentration 1000.0 nM
[10] = biological target: Serine/threonine-protein kinase SIK2 (Homo sapiens) (UniProt Q9H0K1); conditions: Compound concentration 1000.0 nM
[11] = system: Hepatocyte growth factor receptor (Homo sapiens), P08581 [M1250T]; conditions: Compound concentration 1000.0 nM
[12] = biological target: Mitogen-activated protein kinase kinase kinase 14 (Homo sapiens) (UniProt Q99558); conditions: Compound concentration 1000.0 nM
Mitogen-activated protein kinase kinase kinase 14 (Homo sapiens), sequence (Q99558 whole entry, looked up, canonical isoform): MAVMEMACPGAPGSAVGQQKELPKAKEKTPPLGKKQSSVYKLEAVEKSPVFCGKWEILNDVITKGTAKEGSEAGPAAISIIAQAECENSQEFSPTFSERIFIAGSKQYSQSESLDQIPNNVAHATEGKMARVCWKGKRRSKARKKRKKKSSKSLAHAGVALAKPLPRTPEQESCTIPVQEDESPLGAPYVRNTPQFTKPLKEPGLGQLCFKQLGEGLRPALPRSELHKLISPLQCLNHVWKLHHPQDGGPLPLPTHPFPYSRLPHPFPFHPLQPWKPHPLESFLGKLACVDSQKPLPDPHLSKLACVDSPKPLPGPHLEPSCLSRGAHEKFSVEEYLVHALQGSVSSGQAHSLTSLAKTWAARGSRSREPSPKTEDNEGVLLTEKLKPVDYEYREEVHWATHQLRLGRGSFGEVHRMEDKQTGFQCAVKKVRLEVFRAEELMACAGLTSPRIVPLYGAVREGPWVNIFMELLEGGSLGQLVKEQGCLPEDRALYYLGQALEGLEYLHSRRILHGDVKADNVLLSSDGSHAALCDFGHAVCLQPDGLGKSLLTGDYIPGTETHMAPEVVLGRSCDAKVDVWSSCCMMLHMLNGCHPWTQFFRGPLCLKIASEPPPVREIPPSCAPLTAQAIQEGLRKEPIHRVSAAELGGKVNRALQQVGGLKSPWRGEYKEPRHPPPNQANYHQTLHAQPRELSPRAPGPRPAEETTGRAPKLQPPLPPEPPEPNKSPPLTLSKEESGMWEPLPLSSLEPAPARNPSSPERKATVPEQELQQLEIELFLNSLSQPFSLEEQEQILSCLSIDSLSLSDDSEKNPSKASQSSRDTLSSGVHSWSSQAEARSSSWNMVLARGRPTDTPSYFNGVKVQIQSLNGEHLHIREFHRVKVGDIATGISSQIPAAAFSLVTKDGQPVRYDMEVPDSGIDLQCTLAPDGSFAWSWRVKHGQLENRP

[13] = biological target: Casein kinase I isoform delta (Homo sapiens) (UniProt P48730); conditions: Compound concentration 1000.0 nM
Casein kinase I isoform delta (Homo sapiens), sequence (P48730 whole entry, looked up, canonical isoform): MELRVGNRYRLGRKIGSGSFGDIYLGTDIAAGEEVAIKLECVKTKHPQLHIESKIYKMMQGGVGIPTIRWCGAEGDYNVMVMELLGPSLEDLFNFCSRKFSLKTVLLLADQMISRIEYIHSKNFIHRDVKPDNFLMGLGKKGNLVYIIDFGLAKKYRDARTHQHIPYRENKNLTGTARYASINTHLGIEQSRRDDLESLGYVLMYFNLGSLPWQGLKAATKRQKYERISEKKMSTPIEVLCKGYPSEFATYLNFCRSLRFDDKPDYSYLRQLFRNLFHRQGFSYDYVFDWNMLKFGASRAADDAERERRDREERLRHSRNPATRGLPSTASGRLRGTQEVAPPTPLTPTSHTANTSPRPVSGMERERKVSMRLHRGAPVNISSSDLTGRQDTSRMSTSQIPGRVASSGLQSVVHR

[14] = biological target: BMP-2-inducible protein kinase (Homo sapiens) (UniProt Q9NSY1); conditions: Compound concentration 1000.0 nM
[15] = biological target: Glycogen synthase kinase-3 alpha (Homo sapiens) (UniProt P49840); conditions: Compound concentration 1000.0 nM
[16] = system: Epidermal growth factor receptor (Homo sapiens), P00533 [L861Q]; conditions: Compound concentration 1000.0 nM
[17] = biological target: Serine/threonine-protein kinase Nek5 (Homo sapiens) (UniProt Q6P3R8); conditions: Compound concentration 1000.0 nM
Serine/threonine-protein kinase Nek5 (Homo sapiens), sequence (Q6P3R8 whole entry): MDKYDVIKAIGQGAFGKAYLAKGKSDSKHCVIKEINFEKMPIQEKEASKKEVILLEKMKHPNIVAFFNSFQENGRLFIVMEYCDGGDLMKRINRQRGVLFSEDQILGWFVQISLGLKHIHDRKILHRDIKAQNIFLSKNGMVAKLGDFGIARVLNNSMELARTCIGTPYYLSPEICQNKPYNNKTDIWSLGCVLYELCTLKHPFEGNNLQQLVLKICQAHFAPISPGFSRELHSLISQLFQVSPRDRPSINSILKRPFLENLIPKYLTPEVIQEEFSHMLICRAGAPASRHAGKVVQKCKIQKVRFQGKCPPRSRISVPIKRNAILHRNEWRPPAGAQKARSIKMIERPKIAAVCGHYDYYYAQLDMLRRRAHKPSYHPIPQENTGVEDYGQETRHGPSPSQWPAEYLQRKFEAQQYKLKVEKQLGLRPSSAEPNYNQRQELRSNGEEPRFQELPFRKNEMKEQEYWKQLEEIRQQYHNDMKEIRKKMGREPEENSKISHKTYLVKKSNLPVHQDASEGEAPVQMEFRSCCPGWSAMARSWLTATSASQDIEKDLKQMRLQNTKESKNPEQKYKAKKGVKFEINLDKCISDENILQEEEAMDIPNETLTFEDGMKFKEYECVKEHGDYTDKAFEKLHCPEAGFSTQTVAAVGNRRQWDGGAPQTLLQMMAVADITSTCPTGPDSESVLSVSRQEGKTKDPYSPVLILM

[18] = biological target: D(1B) dopamine receptor (Homo sapiens) (UniProt P21918); conditions: Compound concentration 10.0 uM
[19] = biological target: 5-hydroxytryptamine receptor 2C (Homo sapiens) (UniProt P28335); conditions: Compound concentration 10.0 uM
[20] = biological target: Tyrosine-protein kinase Tec (Homo sapiens) (UniProt P42680); conditions: Compound concentration 1000.0 nM
[21] = biological target: Ribosomal protein S6 kinase alpha-3 (Homo sapiens) (UniProt P51812); conditions: Compound concentration 1000.0 nM
Ribosomal protein S6 kinase alpha-3 (Homo sapiens), sequence (P51812 whole entry): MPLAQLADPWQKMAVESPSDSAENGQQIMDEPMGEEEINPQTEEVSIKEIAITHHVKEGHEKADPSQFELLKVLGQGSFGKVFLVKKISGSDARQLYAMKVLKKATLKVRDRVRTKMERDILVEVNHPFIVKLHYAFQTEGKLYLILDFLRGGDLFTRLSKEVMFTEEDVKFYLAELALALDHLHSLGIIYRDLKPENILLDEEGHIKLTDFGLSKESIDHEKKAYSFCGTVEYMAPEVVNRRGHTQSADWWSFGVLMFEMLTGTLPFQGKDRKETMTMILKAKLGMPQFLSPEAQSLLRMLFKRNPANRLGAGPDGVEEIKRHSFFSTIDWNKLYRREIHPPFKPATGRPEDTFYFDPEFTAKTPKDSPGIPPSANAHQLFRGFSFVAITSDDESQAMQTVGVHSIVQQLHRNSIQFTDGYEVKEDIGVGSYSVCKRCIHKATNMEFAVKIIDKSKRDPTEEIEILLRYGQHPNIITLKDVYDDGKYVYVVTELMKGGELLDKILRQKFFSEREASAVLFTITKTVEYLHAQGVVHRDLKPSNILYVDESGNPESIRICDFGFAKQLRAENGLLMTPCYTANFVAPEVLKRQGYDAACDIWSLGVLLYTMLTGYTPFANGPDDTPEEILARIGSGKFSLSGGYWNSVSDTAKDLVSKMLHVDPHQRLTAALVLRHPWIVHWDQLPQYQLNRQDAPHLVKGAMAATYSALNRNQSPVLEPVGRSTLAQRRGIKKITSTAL

[22] = biological target: MAP/microtubule affinity-regulating kinase 4 (Homo sapiens) (UniProt Q96L34); conditions: Compound concentration 1000.0 nM
[23] = biological target: Mitogen-activated protein kinase 3 (Homo sapiens) (UniProt P27361); conditions: Compound concentration 1000.0 nM
[24] = biological target: Rhodopsin kinase GRK1 (Homo sapiens) (UniProt Q15835); conditions: Compound concentration 1000.0 nM
[25] = biological target: Platelet-derived growth factor receptor alpha (Homo sapiens) (UniProt P16234); conditions: Compound concentration 1000.0 nM
[26] = biological target: Transient receptor potential cation channel subfamily M member 6 (Homo sapiens) (UniProt Q9BX84); conditions: Compound concentration 1000.0 nM
[27] = biological target: Mitogen-activated protein kinase 11 (Homo sapiens) (UniProt Q15759); conditions: Compound concentration 1000.0 nM
[28] = biological target: Fibroblast growth factor receptor 2 (Homo sapiens) (UniProt P21802); conditions: Compound concentration 1000.0 nM
Fibroblast growth factor receptor 2 (Homo sapiens), sequence (P21802 22-821 limits assumed): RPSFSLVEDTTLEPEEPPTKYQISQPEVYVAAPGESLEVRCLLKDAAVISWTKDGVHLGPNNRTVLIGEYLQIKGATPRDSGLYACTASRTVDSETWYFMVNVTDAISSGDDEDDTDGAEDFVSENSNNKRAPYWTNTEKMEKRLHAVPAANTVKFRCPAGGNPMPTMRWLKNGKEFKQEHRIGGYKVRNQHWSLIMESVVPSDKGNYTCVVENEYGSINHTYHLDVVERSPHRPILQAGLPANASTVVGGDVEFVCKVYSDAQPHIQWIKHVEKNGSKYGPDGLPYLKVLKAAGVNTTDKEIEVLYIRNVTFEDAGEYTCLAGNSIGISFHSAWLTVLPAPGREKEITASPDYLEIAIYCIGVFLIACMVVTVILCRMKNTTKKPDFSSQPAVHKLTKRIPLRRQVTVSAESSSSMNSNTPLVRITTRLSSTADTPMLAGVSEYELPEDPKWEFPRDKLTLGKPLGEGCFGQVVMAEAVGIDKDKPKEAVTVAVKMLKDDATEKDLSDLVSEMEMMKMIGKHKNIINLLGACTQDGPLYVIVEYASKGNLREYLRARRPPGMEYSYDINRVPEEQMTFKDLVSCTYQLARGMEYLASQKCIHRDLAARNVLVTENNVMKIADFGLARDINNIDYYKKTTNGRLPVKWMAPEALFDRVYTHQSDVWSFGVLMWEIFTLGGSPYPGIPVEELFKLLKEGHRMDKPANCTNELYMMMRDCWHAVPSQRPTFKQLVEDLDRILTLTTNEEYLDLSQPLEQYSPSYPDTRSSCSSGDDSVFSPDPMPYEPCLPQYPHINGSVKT

[29] = biological target: Serine/threonine-protein kinase PLK4 (Homo sapiens) (UniProt O00444); conditions: Compound concentration 1000.0 nM
[30] = biological target: Myosin-IIIb (Homo sapiens) (UniProt Q8WXR4); conditions: Compound concentration 1000.0 nM
[31] = biological target: D(2) dopamine receptor (Homo sapiens) (UniProt P14416); conditions: Compound concentration 10.0 uM
D(2) dopamine receptor (Homo sapiens), sequence (P14416 whole entry): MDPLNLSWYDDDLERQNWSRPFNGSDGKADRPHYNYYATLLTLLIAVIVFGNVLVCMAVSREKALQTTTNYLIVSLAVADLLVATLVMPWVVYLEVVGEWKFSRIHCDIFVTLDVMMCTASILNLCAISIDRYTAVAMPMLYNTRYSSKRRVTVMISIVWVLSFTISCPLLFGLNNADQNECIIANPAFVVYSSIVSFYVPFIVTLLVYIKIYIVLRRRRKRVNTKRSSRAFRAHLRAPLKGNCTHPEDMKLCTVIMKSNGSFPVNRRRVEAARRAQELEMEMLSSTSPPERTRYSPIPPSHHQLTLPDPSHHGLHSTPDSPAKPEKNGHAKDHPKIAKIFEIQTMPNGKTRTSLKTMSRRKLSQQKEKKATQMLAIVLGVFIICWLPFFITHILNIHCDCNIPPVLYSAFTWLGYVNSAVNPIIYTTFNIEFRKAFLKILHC

[32] = biological target: Insulin-like growth factor 1 receptor (Homo sapiens) (UniProt P08069); conditions: Compound concentration 1000.0 nM
[33] = system: Receptor-type tyrosine-protein kinase FLT3 (Homo sapiens), P36888 [UNDEFINED MUTATION]; conditions: Compound concentration 1000.0 nM
[34] = biological target: Cyclin-dependent kinase 13 (Homo sapiens) (UniProt Q14004); conditions: Compound concentration 1000.0 nM
[35] = system: Receptor-type tyrosine-protein kinase FLT3 (Homo sapiens), P36888 [D835V]; conditions: Compound concentration 1000.0 nM
[36] = biological target: Mitogen-activated protein kinase kinase kinase 12 (Homo sapiens) (UniProt Q12852); conditions: Compound concentration 1000.0 nM
[37] = biological target: RAC-beta serine/threonine-protein kinase (Homo sapiens) (UniProt P31751); conditions: Compound concentration 1000.0 nM
[38] = system: Mast/stem cell growth factor receptor Kit (Homo sapiens), P10721 [V559D,V654A]; conditions: Compound concentration 1000.0 nM
[39] = biological target: Homeodomain-interacting protein kinase 3 (Homo sapiens) (UniProt Q9H422); conditions: Compound concentration 1000.0 nM
[40] = system: Epidermal growth factor receptor (Homo sapiens), P00533 [T790M]; conditions: Compound concentration 1000.0 nM
[41] = biological target: SRSF protein kinase 1 (Homo sapiens) (UniProt Q96SB4); conditions: Compound concentration 1000.0 nM
[42] = system: Tyrosine-protein kinase ABL1 (Homo sapiens), P00519 [T315I]; conditions: Compound concentration 1000.0 nM
[43] = biological target: 5-hydroxytryptamine receptor 2B (Homo sapiens) (UniProt P41595); conditions: Compound concentration 10.0 uM
[44] = biological target: Dual specificity mitogen-activated protein kinase kinase 4 (Homo sapiens) (UniProt P45985); conditions: Compound concentration 1000.0 nM
[45] = biological target: Serine/threonine-protein kinase 17A (Homo sapiens) (UniProt Q9UEE5); conditions: Compound concentration 1000.0 nM

Tyrosine-protein kinase ITK/TSK (Homo sapiens), sequence (Q08881 whole entry): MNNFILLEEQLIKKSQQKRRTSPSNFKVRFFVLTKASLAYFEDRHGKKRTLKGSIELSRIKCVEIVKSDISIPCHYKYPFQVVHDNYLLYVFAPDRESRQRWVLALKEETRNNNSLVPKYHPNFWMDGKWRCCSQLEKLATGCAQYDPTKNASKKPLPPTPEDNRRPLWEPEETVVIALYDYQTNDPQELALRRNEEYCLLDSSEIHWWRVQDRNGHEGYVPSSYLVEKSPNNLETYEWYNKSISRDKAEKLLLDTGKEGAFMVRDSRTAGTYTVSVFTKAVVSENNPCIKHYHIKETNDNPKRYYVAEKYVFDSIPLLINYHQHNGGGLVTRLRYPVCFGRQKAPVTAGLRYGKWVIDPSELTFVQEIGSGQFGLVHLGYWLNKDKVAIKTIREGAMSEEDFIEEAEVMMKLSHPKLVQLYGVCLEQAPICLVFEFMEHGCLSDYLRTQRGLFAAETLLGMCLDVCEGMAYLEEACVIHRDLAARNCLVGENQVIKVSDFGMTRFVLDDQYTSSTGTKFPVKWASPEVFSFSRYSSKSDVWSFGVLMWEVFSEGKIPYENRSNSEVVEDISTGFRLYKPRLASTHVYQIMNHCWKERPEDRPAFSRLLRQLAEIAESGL
Calcium/calmodulin-dependent protein kinase type 1 (Homo sapiens), sequence (Q14012 whole entry, looked up): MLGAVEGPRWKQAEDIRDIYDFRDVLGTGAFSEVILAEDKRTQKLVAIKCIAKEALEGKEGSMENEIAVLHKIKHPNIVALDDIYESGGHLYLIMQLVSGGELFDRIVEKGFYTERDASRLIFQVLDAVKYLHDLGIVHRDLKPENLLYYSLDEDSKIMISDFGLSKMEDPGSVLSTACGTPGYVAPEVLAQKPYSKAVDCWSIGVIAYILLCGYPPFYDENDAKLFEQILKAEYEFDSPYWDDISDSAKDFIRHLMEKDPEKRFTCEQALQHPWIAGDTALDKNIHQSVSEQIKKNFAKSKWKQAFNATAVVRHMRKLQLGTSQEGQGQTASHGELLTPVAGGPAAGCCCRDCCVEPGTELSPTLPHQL

O=c1nc(-c2ccccn2)sc2ccccc12 [BTZO-1]
inactive: residual activity [1] 82% | residual activity [2] 92% | residual activity [3] 92% | residual activity [4] 100% | residual activity [5] 85% | residual activity [6] 73% | residual activity [7] 100% | residual activity [8] 80% | residual activity [9] 100% | residual activity [10] 86% | residual activity [11] 98% | residual activity [12] 100% | residual activity [13] 81% | residual activity [14] 86% | residual activity [15] 82% | residual activity [16] 68% | residual activity [17] 78% | inhibition [18] 21.5% | inhibition [19] 12.2% | residual activity [20] 82% | residual activity [21] 88% | residual activity [22] 100% | residual activity [23] 80% | residual activity [24] 76% | residual activity [25] 89% | residual activity [26] 77% | residual activity [27] 100% | residual activity [28] 100% | residual activity [29] 80% | residual activity [30] 79% | inhibition [31] 22.9% | residual activity [32] 80% | residual activity [33] 100% | residual activity [34] 75% | residual activity [35] 100% | residual activity [36] 100% | residual activity [37] 100% | residual activity [38] 100% | residual activity [39] 92% | residual activity [40] 100% | residual activity [41] 83% | residual activity [42] 100% | inhibition [43] 34.3% | residual activity [44] 100% | residual activity [45] 100%

O=C1NC(c2ccccn2)Sc2ccccc21 (stereo not given) [BTZO-4]
inactive: residual activity [1] 77% | residual activity [2] 91% | residual activity [3] 81% | residual activity [4] 100% | residual activity [5] 86% | residual activity [6] 71% | residual activity [7] 77% | residual activity [8] 74% | residual activity [9] 100% | residual activity [10] 96% | residual activity [11] 72% | residual activity [12] 92% | residual activity [13] 74% | residual activity [14] 88% | residual activity [15] 73% | residual activity [16] 77% | residual activity [17] 72% | inhibition [18] 11.2% | inhibition [19] 3.98% | residual activity [20] 75% | residual activity [21] 78% | residual activity [22] 100% | residual activity [23] 74% | residual activity [24] 81% | residual activity [25] 76% | residual activity [26] 64% | residual activity [27] 100% | residual activity [28] 100% | residual activity [29] 76% | residual activity [30] 96% | inhibition [31] -3.91% | residual activity [32] 80% | residual activity [33] 100% | residual activity [34] 90% | residual activity [35] 100% | residual activity [36] 100% | residual activity [37] 92% | residual activity [38] 87% | residual activity [39] 86% | residual activity [40] 96% | residual activity [41] 73% | residual activity [42] 93% | inhibition [43] -5.37% | residual activity [44] 93% | residual activity [45] 86%
